In the NIST ThermoML archive (doi:10.1021/je2006049):
Several values for one entry are separate records, joined by “and”; a condition that tells them apart may be missing. Equal values may be shown once. ± gives the expanded uncertainty stated by the source.

Conditions: Liquid; for electrical conductivity / mass density: 101.33 kPa; for electrical conductivity: Alternating current cell with electrodes; for mass density: Vibrating tube method

CCCC[N+]1(C)CCCC1.O=S(=O)([N-]S(=O)(=O)C(F)(F)F)C(F)(F)F
Conditions | viscosity
273.15 K, 100 kPa, Falling or rolling sphere viscometry | 319.28 ± 22 mPa·s and 318.72 ± 22 mPa·s and 320.44 ± 22 mPa·s
273.15 K, 101.3 kPa, Concentric cylinders viscometry | 322.4 ± 15 mPa·s
273.15 K, 820 kPa, Falling or rolling sphere viscometry | 318.29 ± 22 mPa·s
273.15 K, 10850 kPa, Falling or rolling sphere viscometry | 378.12 ± 28 mPa·s
273.15 K, 20760 kPa, Falling or rolling sphere viscometry | 441.79 ± 35 mPa·s
273.15 K, 32190 kPa, Falling or rolling sphere viscometry | 542.04 ± 45 mPa·s
273.15 K, 40240 kPa, Falling or rolling sphere viscometry | 621.51 ± 54 mPa·s
273.15 K, 45000 kPa, Falling or rolling sphere viscometry | 677.25 ± 61 mPa·s
273.15 K, 50310 kPa, Falling or rolling sphere viscometry | 729.34 ± 67 mPa·s
273.15 K, 59200 kPa, Falling or rolling sphere viscometry | 837.7 ± 80 mPa·s
273.15 K, 60550 kPa, Falling or rolling sphere viscometry | 855.99 ± 82 mPa·s
273.15 K, 69280 kPa, Falling or rolling sphere viscometry | 983.67 ± 99 mPa·s
273.15 K, 70310 kPa, Falling or rolling sphere viscometry | 1008.7 ± 100 mPa·s
273.15 K, 80520 kPa, Falling or rolling sphere viscometry | 1184.8 ± 130 mPa·s
278.15 K, 100 kPa, Falling or rolling sphere viscometry | 224.84 ± 14 mPa·s and 224.85 ± 14 mPa·s
278.15 K, 101.3 kPa, Concentric cylinders viscometry | 230.9 ± 10 mPa·s
283.15 K, 100 kPa, Falling or rolling sphere viscometry | 167.09 ± 9.2 mPa·s [middle of 4 runs]
283.15 K, 101.3 kPa, Concentric cylinders viscometry | 170.1 ± 7.3 mPa·s
283.15 K, 10140 kPa, Falling or rolling sphere viscometry | 192.43 ± 11 mPa·s
283.15 K, 19970 kPa, Falling or rolling sphere viscometry | 222.97 ± 14 mPa·s
283.15 K, 29990 kPa, Falling or rolling sphere viscometry | 259.18 ± 17 mPa·s
283.15 K, 40620 kPa, Falling or rolling sphere viscometry | 303.3 ± 21 mPa·s
283.15 K, 50520 kPa, Falling or rolling sphere viscometry | 350.45 ± 25 mPa·s
283.15 K, 59770 kPa, Falling or rolling sphere viscometry | 398.94 ± 30 mPa·s
283.15 K, 70190 kPa, Falling or rolling sphere viscometry | 463.39 ± 37 mPa·s
283.15 K, 78710 kPa, Falling or rolling sphere viscometry | 517.26 ± 43 mPa·s
283.15 K, 89720 kPa, Falling or rolling sphere viscometry | 620.7 ± 54 mPa·s
283.15 K, 89960 kPa, Falling or rolling sphere viscometry | 604.22 ± 52 mPa·s
283.15 K, 100390 kPa, Falling or rolling sphere viscometry | 708.87 ± 65 mPa·s and 702.53 ± 64 mPa·s
288.15 K, 101.3 kPa, Concentric cylinders viscometry | 128.4 ± 5.4 mPa·s
293.15 K, 100 kPa, Falling or rolling sphere viscometry | 99.81 ± 4.6 mPa·s and 99.92 ± 4.6 mPa·s
293.15 K, 101.3 kPa, Concentric cylinders viscometry | 98.95 ± 4.1 mPa·s and 99 ± 4.1 mPa·s
298.15 K, 100 kPa, Falling or rolling sphere viscometry | 76.63 ± 3.5 mPa·s [middle of 5 runs]
298.15 K, 101.3 kPa, Concentric cylinders viscometry | 77.83 ± 3.2 mPa·s
298.15 K, 860 kPa, Falling or rolling sphere viscometry | 77.22 ± 3.5 mPa·s
298.15 K, 10370 kPa, Falling or rolling sphere viscometry | 87.96 ± 3.9 mPa·s
298.15 K, 20760 kPa, Falling or rolling sphere viscometry | 100.93 ± 4.6 mPa·s
298.15 K, 30700 kPa, Falling or rolling sphere viscometry | 114.96 ± 5.5 mPa·s
298.15 K, 40660 kPa, Falling or rolling sphere viscometry | 130.58 ± 6.6 mPa·s
298.15 K, 50630 kPa, Falling or rolling sphere viscometry | 148.26 ± 7.8 mPa·s
298.15 K, 60600 kPa, Falling or rolling sphere viscometry | 167.95 ± 9.2 mPa·s
298.15 K, 70390 kPa, Falling or rolling sphere viscometry | 189.46 ± 11 mPa·s
298.15 K, 80180 kPa, Falling or rolling sphere viscometry | 213.75 ± 13 mPa·s
298.15 K, 90600 kPa, Falling or rolling sphere viscometry | 242.18 ± 15 mPa·s
298.15 K, 100230 kPa, Falling or rolling sphere viscometry | 271.62 ± 19 mPa·s
303.15 K, 100 kPa, Falling or rolling sphere viscometry | 62.82 ± 2.6 mPa·s and 62.63 ± 2.6 mPa·s
303.15 K, 101.3 kPa, Concentric cylinders viscometry | 62.26 ± 2.5 mPa·s
313.15 K, 100 kPa, Falling or rolling sphere viscometry | 41.27 ± 1.7 mPa·s and 41.24 ± 1.7 mPa·s
313.15 K, 101.3 kPa, Concentric cylinders viscometry | 41.72 ± 1.7 mPa·s
323.15 K, 100 kPa, Falling or rolling sphere viscometry | 29.04 ± 1.2 mPa·s [middle of 5 runs]
323.15 K, 101.3 kPa, Concentric cylinders viscometry | 29.42 ± 1.2 mPa·s
323.15 K, 10520 kPa, Falling or rolling sphere viscometry | 32.31 ± 1.3 mPa·s
323.15 K, 20600 kPa, Falling or rolling sphere viscometry | 36.21 ± 1.5 mPa·s
323.15 K, 29970 kPa, Falling or rolling sphere viscometry | 40.16 ± 1.6 mPa·s
323.15 K, 39910 kPa, Falling or rolling sphere viscometry | 44.72 ± 1.8 mPa·s
323.15 K, 50590 kPa, Falling or rolling sphere viscometry | 50.06 ± 2 mPa·s
323.15 K, 60550 kPa, Falling or rolling sphere viscometry | 55.73 ± 2.3 mPa·s
323.15 K, 70490 kPa, Falling or rolling sphere viscometry | 61.77 ± 2.6 mPa·s
323.15 K, 80450 kPa, Falling or rolling sphere viscometry | 68.24 ± 2.9 mPa·s
323.15 K, 90470 kPa, Falling or rolling sphere viscometry | 75.36 ± 3.2 mPa·s
323.15 K, 100400 kPa, Falling or rolling sphere viscometry | 82.99 ± 4.3 mPa·s
333.15 K, 100 kPa, Falling or rolling sphere viscometry | 21.31 ± 0.89 mPa·s and 21.3 ± 0.89 mPa·s
333.15 K, 101.3 kPa, Concentric cylinders viscometry | 21.64 ± 0.87 mPa·s
343.15 K, 100 kPa, Falling or rolling sphere viscometry | 16.14 ± 0.66 mPa·s and 16.13 ± 0.66 mPa·s
343.15 K, 101.3 kPa, Concentric cylinders viscometry | 16.46 ± 0.67 mPa·s
348.15 K, 100 kPa, Falling or rolling sphere viscometry | 14.07 ± 0.58 mPa·s and 14.06 ± 0.58 mPa·s
348.15 K, 10850 kPa, Falling or rolling sphere viscometry | 15.68 ± 0.64 mPa·s
348.15 K, 11990 kPa, Falling or rolling sphere viscometry | 15.82 ± 0.65 mPa·s
348.15 K, 21760 kPa, Falling or rolling sphere viscometry | 17.54 ± 0.72 mPa·s
348.15 K, 29210 kPa, Falling or rolling sphere viscometry | 18.8 ± 0.77 mPa·s
348.15 K, 38020 kPa, Falling or rolling sphere viscometry | 20.38 ± 0.84 mPa·s
348.15 K, 49600 kPa, Falling or rolling sphere viscometry | 22.9 ± 0.94 mPa·s
348.15 K, 64630 kPa, Falling or rolling sphere viscometry | 26.45 ± 1.1 mPa·s
348.15 K, 73060 kPa, Falling or rolling sphere viscometry | 28.44 ± 1.2 mPa·s
348.15 K, 85040 kPa, Falling or rolling sphere viscometry | 31.53 ± 1.3 mPa·s
348.15 K, 102920 kPa, Falling or rolling sphere viscometry | 36.8 ± 1.5 mPa·s
353.15 K, 100 kPa, Falling or rolling sphere viscometry | 12.73 ± 0.53 mPa·s and 12.67 ± 0.52 mPa·s
353.15 K, 101.3 kPa, Concentric cylinders viscometry | 12.91 ± 0.52 mPa·s
363.15 K, 101.3 kPa, Concentric cylinders viscometry | 10.35 ± 0.42 mPa·s

Conditions | electrical conductivity [S/m] | mass density
273.15 K | 0.0741 ± 0.003 | 1416.89 ± 0.59 kg/m3 and 1416.94 ± 0.31 kg/m3 and 1416.7 ± 3.9 kg/m3
278.15 K | 0.101 ± 0.0041 | 1412.1 ± 3.9 kg/m3
283.15 K | 0.134 ± 0.0054 | 1407.76 ± 0.59 kg/m3 and 1407.82 ± 0.31 kg/m3 and 1407.6 ± 3.9 kg/m3
288.15 K | 0.174 ± 0.007 | 1403.39 ± 0.31 kg/m3 and 1403.2 ± 3.8 kg/m3
293.14 K | 0.221 ± 0.0089 | –
293.15 K | – | 1398.92 ± 0.58 kg/m3 [middle of 4 runs]
298.14 K | 0.276 ± 0.011 | –
298.15 K | 0.275 ± 0.011 | 1394.51 ± 0.57 kg/m3 and 1394.4 ± 3.8 kg/m3
303.15 K | 0.338 ± 0.013 | 1390.1 ± 0.57 kg/m3 and 1390.17 ± 0.3 kg/m3 and 1390 ± 3.8 kg/m3
313.15 K | 0.486 ± 0.019 | 1381.31 ± 0.56 kg/m3 and 1381.38 ± 0.3 kg/m3 and 1381.2 ± 3.7 kg/m3
323.14 K | 0.667 ± 0.027 | –
323.15 K | – | 1372.58 ± 0.55 kg/m3 and 1372.67 ± 0.3 kg/m3 and 1372.5 ± 3.7 kg/m3
333.15 K | 0.879 ± 0.035 | 1363.89 ± 0.54 kg/m3 and 1363.97 ± 0.29 kg/m3 and 1363.9 ± 3.6 kg/m3
343.14 K | 1.12 ± 0.045 | –
343.15 K | – | 1355.26 ± 0.54 kg/m3 and 1355.36 ± 0.29 kg/m3 and 1355.3 ± 3.6 kg/m3
353.15 K | 1.39 ± 0.056 | 1346.69 ± 0.53 kg/m3 and 1346.78 ± 0.29 kg/m3 and 1346.8 ± 3.5 kg/m3
363.15 K | – | 1338.16 ± 0.52 kg/m3 and 1338.25 ± 0.29 kg/m3 and 1338.4 ± 3.5 kg/m3
